Assay results as given in the supplement of paper PMC10307832.

Columns and labels:
Assay in all cases: relative viability (nuclei count vs DMSO), 5 days (fraction); higher = more cells survive
[1] = compound: Cc1cnc(CNC(=O)c2c(=O)c3ccc(N4CCCN(C)CC4)nc3n3c2sc2ccccc23)cn1 [CX-5461] + CS(=O)(=O)N1CCN(Cc2cc3nc(-c4cccc5[nH]ncc45)nc(N4CCOCC4)c3s2)CC1 [Pictilisib] (partner 1 µM)
Procedure, shortened: (§1)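 Relative viability divides the nuclei count in treated wells by that in vehicle wells. Lung cancer cell lines were seeded in 1536-well plates, dosed by pin tool the next day, and fixed and stained after 5 days in one step with final 0.05% Triton X-100, 1% formaldehyde and 1 ug/ml Hoechst. Dosing was a single drug or a fixed anchor-drug dose plus five library-drug doses (not always all listed) in √10 steps, and values are medians of duplicate plates imaged at 4×.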

[2] = compound: Cc1cnc(CNC(=O)c2c(=O)c3ccc(N4CCCN(C)CC4)nc3n3c2sc2ccccc23)cn1 [CX-5461] + COc1cccc2cc(-c3nc([C@H]4CC[C@H](C(=O)O)CC4)n4ncnc(N)c34)[nH]c12 [OSI-027] (partner 0.5 µM)
Procedure, shortened: as §1

[3] = compound: Cc1cnc(CNC(=O)c2c(=O)c3ccc(N4CCCN(C)CC4)nc3n3c2sc2ccccc23)cn1 [CX-5461] + Cc1cc(Nc2cc(N3CCN(C)CC3)nc(Sc3ccc(NC(=O)C4CC4)cc3)n2)n[nH]1 [Tozasertib] (partner 0.1 µM)
Procedure, shortened: as §1

[4] = compound: Cc1cnc(CNC(=O)c2c(=O)c3ccc(N4CCCN(C)CC4)nc3n3c2sc2ccccc23)cn1 [CX-5461] + C[C@]1(O)C[C@@H](c2nc(-c3ccc4ccc(-c5ccccc5)nc4c3)c3c(N)nccn32)C1 [Linsitinib] (partner 1 µM)
Procedure, shortened: as §1

Row | Cell Line | relative viability ([1]; first compound 0.01 µM) | relative viability ([1]; first compound 0.03162 µM) | relative viability ([1]; first compound 0.1 µM) | relative viability ([1]; first compound 0.3162 µM) | relative viability ([1]; first compound 1 µM) | relative viability ([2]; first compound 0.01 µM) | relative viability ([2]; first compound 0.03162 µM) | relative viability ([2]; first compound 0.1 µM) | relative viability ([2]; first compound 0.3162 µM) | relative viability ([2]; first compound 1 µM) | relative viability ([3]; first compound 0.01 µM) | relative viability ([3]; first compound 0.03162 µM) | relative viability ([3]; first compound 0.1 µM) | relative viability ([3]; first compound 0.3162 µM) | relative viability ([3]; first compound 1 µM) | relative viability ([4]; first compound 0.01 µM) | relative viability ([4]; first compound 0.03162 µM) | relative viability ([4]; first compound 0.1 µM) | relative viability ([4]; first compound 0.3162 µM) | relative viability ([4]; first compound 1 µM)
1 | HCC-78 | 0.187 | 0.194 | 0.172 | 0.252 | 0.212 | 0.409 | 0.362 | 0.366 | 0.363 | 0.354 | 0.463 | 0.391 | 0.466 | 0.326 | 0.453 | 0.566 | 0.548 | 0.502 | 0.437 | 0.398
2 | HCC-366 | 0.133 | 0.142 | 0.142 | 0.0964 | 0.162 | 0.987 | 1 | 0.89 | 0.764 | 0.175 | 0.0846 | 0.0825 | 0.0964 | 0.116 | 0.0753 | 0.574 | 0.738 | 0.581 | 0.573 | 0.615
3 | HCC-827 | 1.16 | 0.912 | 1 | 0.87 | 1.12 | 0.838 | 0.828 | 0.79 | 0.757 | 0.735 | 0.451 | 0.376 | 0.425 | 0.411 | 0.43 | 0.901 | 1.01 | 0.999 | 0.946 | 0.957
4 | HOP-62 | 0.592 | 1.16 | 0.727 | 0.167 | 0.623 | 0.824 | 0.941 | 0.83 | 0.93 | 0.594 | 0.315 | 0.405 | 0.372 | 0.284 | 0.344 | 1.08 | 0.813 | 0.922 | 0.858 | 0.997
5 | IA-LM | 0.337 | 0.327 | 0.254 | 0.33 | 0.207 |  |  |  |  |  |  |  |  |  |  | 0.644 | 0.863 | 0.852 | 0.688 | 0.415
6 | LC-2-ad | 0.431 | 0.51 | 0.516 | 0.502 | 0.334 | 0.919 | 0.866 | 0.705 | 0.718 | 0.546 | 0.377 | 0.446 | 0.469 | 0.411 | 0.364 | 0.808 | 0.886 | 0.829 | 0.858 | 0.833
7 | LCLC-97TM1 | 0.179 | 0.172 | 0.188 |  | 0.204 | 0.483 | 0.591 | 0.49 |  | 0.484 | 0.269 | 0.26 | 0.218 |  | 0.208 | 0.176 | 0.205 | 0.168 |  | 0.212
8 | LCLC-103H | 0.588 | 0.611 | 0.603 | 0.483 | 0.619 | 0.458 | 0.433 | 0.434 | 0.446 | 0.384 | 0.457 | 0.527 | 0.473 | 0.391 | 0.477 | 1.14 | 1.16 | 0.895 | 1.21 | 1.12
9 | LK-2 |  | 0.623 | 0.652 |  | 0.492 | 0.268 | 0.173 | 0.185 | 0.162 | 0.179 | 0.18 | 0.182 | 0.162 |  | 0.183 | 0.363 | 0.715 | 0.598 |  | 0.515
10 | LOU-NH91 | 0.57 | 0.497 | 0.528 | 0.452 | 0.486 | 0.756 | 0.728 | 0.714 |  | 0.727 | 0.75 | 0.729 | 0.648 |  | 0.632 | 1 | 1.04 | 0.999 | 0.715 | 0.842
11 | LU99A | 0.296 | 0.312 | 0.271 | 0.289 | 0.173 | 0.338 | 0.295 | 0.333 | 0.257 | 0.258 | 0.265 | 0.259 | 0.253 | 0.241 | 0.272 | 0.562 | 0.575 | 0.494 | 0.345 | 0.53
12 | NCI-H522 |  |  |  |  |  | 0.739 | 0.771 | 0.77 |  | 0.669 | 0.521 | 0.44 | 0.597 |  | 0.646 |  |  |  |  | 
13 | NCI-H1299 | 0.842 |  | 0.768 | 0.799 | 0.545 |  |  |  |  |  |  |  |  |  |  | 0.942 | 0.977 | 1.04 | 1.01 | 0.831
14 | NCI-H1563 | 0.648 | 0.662 | 0.637 | 0.624 | 0.528 | 0.715 | 0.745 | 0.691 | 0.771 | 0.52 |  |  |  |  |  | 1.19 | 1.14 | 0.894 | 0.995 | 0.664
15 | NCI-H1623 |  |  |  |  |  | 0.394 | 0.434 | 0.481 | 0.41 | 0.417 | 0.465 | 0.406 | 0.44 | 0.463 | 0.372 |  |  |  |  | 
16 | NCI-H1648 |  |  |  |  |  |  | 0.256 | 0.277 | 0.27 | 0.27 |  | 0.654 | 0.607 | 0.397 | 0.514 |  |  |  |  | 
17 | NCI-H1650 | 0.577 | 0.593 |  | 0.206 | 0.226 | 0.678 | 0.643 | 0.283 | 0.497 | 0.182 | 0.398 | 0.389 | 0.261 | 0.357 | 0.239 |  |  |  |  | 
18 | NCI-H1703 | 0.258 | 0.243 | 0.239 | 0.284 | 0.221 |  |  |  |  |  |  |  |  |  |  | 0.374 | 1.22 | 0.898 | 0.223 | 0.423
19 | NCI-H1792 | 0.294 | 0.296 | 0.277 | 0.276 | 0.281 | 0.657 | 0.786 | 0.763 | 0.759 | 0.659 |  |  |  |  |  | 0.54 | 0.58 | 0.485 | 0.565 | 0.545
20 | NCI-H2170 | 0.368 | 0.366 | 0.344 | 0.232 | 0.379 | 0.812 | 0.666 | 0.754 | 0.707 | 0.747 | 0.781 | 0.768 | 0.727 | 0.581 | 0.637 |  |  |  |  | 
21 | NCI-H2342 |  |  |  |  |  | 0.633 | 0.599 | 0.584 | 0.642 | 0.598 | 0.521 | 0.524 | 0.462 | 0.497 | 0.566 |  |  |  |  | 
22 | SW 900 |  |  |  |  |  | 0.423 | 0.601 | 0.488 | 0.386 | 0.271 | 0.555 | 0.525 | 0.544 | 0.609 | 0.537 |  |  |  |  | 
